Test results as given in patent US6855828B1, “Detection of hypoxia” (The Trustees of the University of Pennsylvania, priority 1992, dated 2005).
Where “and” joins values, the source holds several entries; their conditions need not be identical. Identical values can stand only once. Values belong to the compound of their own block, whether it stands above or below them.

How the values were obtained:
[1] = test system: existing antibodies (to EF5 and EF3); assay: Affinity of existing antibodies towards EF1; assay type: binding
[2] = Distribution of [^18F]-EF1 in murine organs and tissues; assay type: in vivo, mice; set-up: Distribution in murine tissues, Kidney / Distribution in murine tissues, Heart / Distribution in murine tissues, Muscle / Distribution in murine tissues, Liver / Distribution in murine tissues, Spleen: unit not given beside the values
Procedure: (§1) To measure the distribution of radioactive drug in various organs and tissues, the solution of [^18F]-EF1 in saline buffer was injected I/V into 2 male Buffalo rats. Animals was sacrificed and the samples of tissues were collected and weighted. The radioactivity of samples was measured by γ-counter and corrected for weight and the time of decay.
The distribution of radioactive drug in various murine organs and tissues was measured similarly to the previous example. [^18F]-EF1 was injected into 4 mice, which were sacrificed after 5 and 90 minutes and the radioactivity of tissues was measured.

Morris 7777 hepatoma = assay: PET image of tumor-bearing rat treated with [^18F]-EF1; assay type: in vivo; settings: 150 minutes post injection
Procedure: FIG. 4 illustrates a PET image of a tumor-bearing rat treated with 18-F-labeled EF1 (2-(2-nitro-1H-imidazol-1-yl)-N-3-monofluoropropyl) acetamide, 150 minutes post injection.
(§2) Q7 cells were obtained from the American Type Culture Collection (ATCC). They were maintained in exponential growth by transfers at 3.5 day intervals with standard culture conditions. Growth medium was Eagle's MEM supplemented with 15% fetal calf serum and standard penicillin and streptomycin.
(§3) All animal studies conformed to the regulations of the University of Pennsylvania Institutional Animal Care and Use Committee. Male Buffalo rats (Harlan Sprague Dawley, Indianapolis, Ind., USA) were used for all studies. Donor tumors were created by injecting 1 million Q7 cells subcutaneously into the thigh region. The average growth time to achieve a 1 cm diameter tumor was 21 days. Tumors of less than 2 g were used in the experiments.
It is believed that this is the first PET image of a rodent tumor where substantial image modifications to eliminate gut clearance effects have not been necessary.

[3] = Tissue distribution of [^18F]-EF1 in rats bearing tumors (γ-counter); assay type: in vivo; settings: tumor-bearing rat, I/V
Text: as §2, §3, §1
In particular, note that the density of radioactive counts closely parallels the findings from the image analysis. Results from 2 animals, are shown. PET and immunohistochemical images from both animals were very similar (data not shown)

Structure (SMILES): O=C(Cn1ccnc1[N+](=O)[O-])NCCCF [EF1, (2-(2-nitro-1H-imidazol-1-yl)-N-3-monofluoropropyl) acetamide]
Affinity of existing antibodies (to EF5 and EF3) towards compound [1]: only a modest affinity

Density of label in mouse-brain tissue compared with other organs ([2]; early times): substantially lower densities
Distribution in murine tissues, Blood ([2]; mouse, 5 minutes): 0.041 and 0.038
Distribution in murine tissues, Brain ([2]; mouse, 5 minutes): 0.004
Distribution in murine tissues, Cecum ([2]; mouse, 5 minutes, Cecum): 0.022 and 0.023
Distribution in murine tissues, Heart ([2]; mouse, 5 minutes): 0.041 and 0.052
Distribution in murine tissues, Intestine ([2]; mouse, 5 minutes): 0.037 and 0.039
Distribution in murine tissues, Kidney ([2]; mouse, 5 minutes): 0.072 and 0.044
Distribution in murine tissues, Liver ([2]; mouse, 5 minutes): 0.064 and 0.050
Distribution in murine tissues, Lung ([2]; mouse, 5 minutes): 0.052 and 0.046
Distribution in murine tissues, Muscle ([2]; mouse, 5 minutes): 0.038 and 0.031
Distribution in murine tissues, Spleen ([2]; mouse, 5 minutes): 0.034 and 0.035
Distribution in murine tissues, Stomach ([2]; mouse, 5 minutes): 0.013
Distribution in murine tissues, Tibia ([2]; mouse, 5 minutes): 0.045 and 0.042
Distribution in murine tissues, Urine ([2]; mouse, 5 minutes): 0.045
Distribution in murine tissues, Blood ([2]; mouse, 90 minutes): 0.005 and 0.007
Distribution in murine tissues, Brain ([2]; mouse, 90 minutes): 0.003 and 0.005
Distribution in murine tissues, Esophagus ([2]; mouse, 90 minutes, Esophagus): 0.012
Distribution in murine tissues, Heart ([2]; mouse, 90 minutes): 0.006 and 0.009
Distribution in murine tissues, Intestine ([2]; mouse, 90 minutes): 0.014 and 0.012
Distribution in murine tissues, Kidney ([2]; mouse, 90 minutes): 0.011 and 0.015
Distribution in murine tissues, Liver ([2]; mouse, 90 minutes): 0.016 and 0.020
Distribution in murine tissues, Lung ([2]; mouse, 90 minutes): 0.007 and 0.005
Distribution in murine tissues, Muscle ([2]; mouse, 90 minutes): 0.005 and 0.009
Distribution in murine tissues, Spleen ([2]; mouse, 90 minutes): 0.005 and 0.007
Distribution in murine tissues, Stomach ([2]; mouse, 90 minutes): 0.007 and 0.009
Distribution in murine tissues, Tail ([2]; mouse, 90 minutes, Tail): 0.071 and 0.051
Distribution in murine tissues, Tibia ([2]; mouse, 90 minutes): 0.079 and 0.064
Distribution in murine tissues, Urine ([2]; mouse, 90 minutes): 0.595 and 0.786
Tissue distribution, Brain ([3]; 3 hrs, Brain): 0.13 % dose/gram and 0.11 % dose/gram
Tissue distribution, Kidney ([3]; 3 hrs, Kidney): 0.54 % dose/gram and 0.29 % dose/gram
Tissue distribution, Liver ([3]; 3 hrs, Liver): 0.25 % dose/gram and 0.21 % dose/gram
Tissue distribution, Muscle ([3]; 3 hrs): 0.17 % dose/gram and 0.13 % dose/gram
Tissue distribution, Spleen ([3]; 3 hrs, Spleen): 0.17 % dose/gram and 0.13 % dose/gram
Tissue distribution, Tumor ([3]; 3 hrs): 0.34 % dose/gram and 0.28 % dose/gram
Tissue distribution, Muscle ([3]; 4 hrs): 0.23 % dose/gram and 0.13 % dose/gram
Tissue distribution, Tumor ([3]; 4 hrs): 0.64 % dose/gram and 0.44 % dose/gram
Structure (SMILES): O=C(Cn1ccnc1[N+](=O)[O-])NCCCF [[^18F]-EF1, (2-(2-nitro-1H-imidazol-1-yl)-N-3-monofluoropropyl) acetamide]
Visibility of tumor in PET image (Morris 7777 hepatoma): clearly visible
